Results: PMC8536644, “Enigmatic mechanism of the N-vinylpyrrolidone hepatocarcinogenicity in the rat” (Archives of Toxicology, 2021)
Values joined by “and” are separate entries in the source; they are usually repeats but may differ in a detail not shown here. Identical values can stand only once.

Key:
mice = system: mice; parameters: method as in BASF [1993]; conditions: oral application, ref BASF [1993]; cited from earlier work
CYP2B = assay: PROD inhibition control in Aroclor 1254-induced rat liver microsomes; format: biochemical; conditions: for PROD enzyme activity: 0 µM control 78.9 ± 3.2
Procedure: For determination of the enzyme activities in triplicates, 85 µL master mix (100 mM TrisHCl pH 7.5, 2 mM 5’AMP, 5 mM G-6-P, 10 U G-6-P-DH, 10 mM Dicumarol, 10 mM MgCl2, either 2 µM EROD or 10 µM PROD or 5 µM BROD) was added to 10 µL microsomal fraction (1 mg protein/mL). The reaction was started by the addition of 5 µL 2 mM NADPH (dissolved in 100 mM TrisHCl pH 7.5) followed by incubation at 37 °C for 16 min. The activity was determined by measuring the increase of the fluorescence (excitation at 550 nm, emission at 585 nm) due to resorufin formation compared with resorufin standards, which had been prepared by dissolving tenfold concentrated solutions in DMSO, which were then diluted tenfold in 100 mM TrisHCl pH 7.5.
As a method control the described AROD assay was performed with microsomal fractions derived from liver and lung of male Wistar rats which had been treated i.p. for 5 days with aroclor 1254 (500 mg/kg bw). These control assays were performed in presence of 1 μM, 10 μM or 100 μM NVP, respectively, in order to check for potential interactions of NVP with the substrate turnover in the AROD assay.

[1] = system: palmitoyl CoA oxidase/acyl CoA oxidase; assay: Cyanide-insensitive palmitoyl-CoA oxidase assay, liver cytosol (PPARα marker); format: in vivo, rat; conditions: male rats
Procedure: Cyanide-insensitive palmitoyl-CoA oxidase was determined essentially according to the method by Lazarow ([1981]), specifically as follows:
Five µL of the liver cytosol (prepared as described in the preceding chapter “Aryl hydrocarbon receptor”) derived from the NVP-treated (and untreated control) male rats were mixed in a centrifugal analyzer Cobas Fara II (Hoffmann La Roche) with 250 µL reaction mixture consisting of 28.2 mL 50 mM Tris buffer pH 8.01, 150 µL 2% Triton-X-100, 300 µL 1 mM FAD, 300 µL 10 mM CoA, 150 µL 1.5% BSA, 90 µL 0.33 mM dithiothreitol, 300 µL 20 mM NAD and after homogenization 300 µL 100 mM KCN. The reaction was started by adding 5 µL of 5.03 µM palmitoyl-CoA aqueous solution. The increase of the absorption at ʎ = 334 nm due to NADH formation was determined and translated to palmitoyl-CoA oxidase U/L by the Cobas Fara II software.

rat liver cells = conditions: rats, ref BASF [2011], cited from earlier work
Wistar rats = assay: Clinical observations and body weight during 5-day inhalation
Procedure: Eight-week-old male and female Wistar Crl:WI (Han) rats were obtained from Charles River Laboratories, Sulzfeld, Germany and acclimatized for 10 days. They were kept at 20–24 °C at a humidity of 30–70% in groups of six animals in polysulfone cages (Tecniplast) with free access to water and feed (10 mm pellets, Provimi Kliba, Kaiseraugst, Switzerland).
The animals were acclimatized to the whole-body exposure chambers for 2 days using the inhalation stream without the test substance. […] Animals were weighed before the 2-day acclimatation to the exposure chambers and subsequently before and after the exposure to the test substance. Animals were killed in the morning after the last exposure period to perform the examinations described further down.
For the inhalation experiments, two animals per cage (DK III, Becker & CO., Castrop-Rauxel, Germany) were kept in the glass–steel inhalation chambers (volume approximately 200 L) without access to feed and water. For each test dose a constant amount of NVP was pumped by continuous infusion pumps PHD Ultra (Havard Apparatus, Holliston) to an evaporator (Glasverdampfer BASF, Ludwigshafen, Germany; Thermostat Julabo Labortechnik, Seelbach, Germany). The thus generated vapor was combined with air and introduced into the exposure chamber.

rat liver = assay: Non-protein-bound sulfhydryl groups (NPSH) in liver homogenate supernatant; format: in vivo; conditions: for NPSH, individual animal / NPSH, group (mean ± SD): rat liver; for NPSH, group (mean ± SD): n = 6
Procedure: Determination of NPSH was performed according to the principle described by Ellmann (1958, 1959) in the liver homogenate supernatant fraction of the NVP-exposed male Wistar rats. […] The supernatant fraction was stored in aliqots at − 80 °C. Prior to assay, the samples were diluted fourfold and to 100 µL of the diluted sample 200 µL Tris/EDTA (1 M/5 mM, pH 8.9) buffer was added. Determinations were performed in triplicates. […] Measurements were performed 5 min thereafter at λ = 412 nm.

estrogen receptor α = system: estrogen receptor α; parameters: method as in ToxCast (comptox.epa.gov dashboard); conditions: ref ToxCast (comptox.epa.gov dashboard); cited from earlier work
rat hepatocytes = system: rat hepatocytes; parameters: method as in MAK [1994]; conditions: ref MAK [1994]; cited from earlier work

For `C=CN1CCCC1=O` [NVP, N-vinylpyrrolidone], the Micronucleus test result (mice) is given as “negative”, the PROD enzyme activity (CYP2B; 1 µM NVP) is given as 88.6 ± 3.3 pmol/min/mg protein and the PROD enzyme activity (CYP2B; 10 µM NVP) is given as 92.1 ± 6.0 pmol/min/mg protein. The PROD enzyme activity (CYP2B; 100 µM NVP) was 94.6 ± 2.3 pmol/min/mg protein, the “Inhibition of PROD activity” value (CYP2B; 1, 10 or 100 µM NVP) was “does not lead to inhibition” and the “Cyanide-insensitive palmitoyl CoA oxidase activity in liver cytosol” value ([1]; 5 ppm) was 5.43 ± 0.71 nmol/min/mg protein. The “Cyanide-insensitive palmitoyl CoA oxidase activity in liver cytosol” value ([1]; 10 ppm) was 5.47 ± 0.71 nmol/min/mg protein, the “Cyanide-insensitive palmitoyl CoA oxidase activity in liver cytosol” value ([1]; 20 ppm, statistically significantly reduced) was 4.68 ± 0.71 nmol/min/mg protein and the “Concentration from which liver cell proliferation is significantly increased” value (rat liver cells; inhalation for 7 days) was at least 1 ppm. For the same molecule, the “Concentration giving a significant increase of liver cell proliferation (zones 3 and 2)” value (rat liver cells; inhalation for 28 days) was 0.5 ppm, the “Mortality during the 5-day exposure” value (Wistar rats; 5, 10, 20 ppm inhalation, male and female) was “None of the exposed rats died” and the Body weight increase (Wistar rats; 10 ppm, males, p ≤ 0.05) was “reduced”. For the same molecule, the “Slightly increased salivation, animals affected” value (Wistar rats; day 2 of exposure) was 1 of 48, the “Red nose effluent, animals affected” value (Wistar rats; days 4 or 5 of exposure) was 5 of 48 and the “GSH concentration (NPSH assay), range” value (rat liver; NVP-exposed male rats, 5-20 ppm) was 3.72–5.23 µmol/g liver. For the same molecule, the “NPSH, individual animal” value (rat liver; 5 ppm NVP inhalation, animals 7-12) was 5,13 µmol/g liver and 4,59 µmol/g liver and 4,10 µmol/g liver and 4,86 µmol/g liver and 3,99 µmol/g liver, the “NPSH, group (mean ± SD)” value (rat liver; 5 ppm NVP inhalation) was 4.42 ± 0.52 µmol/g liver and the “NPSH, individual animal” value (rat liver; 10 ppm NVP inhalation, animals 13-18) was 4.11 µmol/g liver and 4.72 µmol/g liver and 4.83 µmol/g liver and 4.57 µmol/g liver and 3.76 µmol/g liver. The “NPSH, group (mean ± SD)” value (rat liver; 10 ppm NVP inhalation) was 4.23 ± 0.58 µmol/g liver, the “NPSH, individual animal” value (rat liver; 20 ppm NVP inhalation, animals 19-24) was 4.47 µmol/g liver and 5.23 µmol/g liver and 3.72 µmol/g liver and 3.88 µmol/g liver and 4.67 µmol/g liver and 4.64 µmol/g liver and the “NPSH, group (mean ± SD)” value (rat liver; 20 ppm NVP inhalation) was 4.44 ± 0.55 µmol/g liver. For the same molecule, the “Effect on estrogen receptor α” value (estrogen receptor α) was “activates” and the “Unscheduled DNA Synthesis (UDS) test result” value (rat hepatocytes) was “negative”.
